Tests used:
bermudagrass = experiment: Test F preemergence test; format: in vivo, Cynodon dactylon; conditions: scale 0 to 100
Text: (§1) Seeds of plant species selected from bermudagrass (Cynodon dactylon), Surinam grass (Brachiaria decumbens), large crabgrass (Digitaria sanguinalis), green foxtail (Setaria viridis), goosegrass (Eleusine indica), johnsongrass (Sorghum halepense), kochia (Kochia scoparia), pitted morningglory (Ipomoea lacunosa), purple nutsedge (Cyperus rotundus), common ragweed (Ambrosia elation), mustard (Brassica nigra), guineagrass (Panicum maximum), […] (Paspalum dilatatum), barnyardgrass (Echinochloa crus-galli), southern sandbur (Cenchrus echinatus), common sowthistle (Sonchus oleraceous), prickly […] spinosa), Italian ryegrass (Lolium multiflorum), common purslane (Portulaca oleracea), broadleaf signalgrass (Brachiaria platyphylla), common groundsel (Senecio vulgaris), common chickweed (Stellaria media), Virginia dayflower (Commelina virginica), annual bluegrass (Poa annua), naked crabgrass (Digitaria nuda), […] cochinchinensis), quackgrass (Elytrigia repens), Canada horseweed (Conyza canadensis), field bindweed (Convolvulus arvensis), […] (Bidens bipinnata), common mallow (Malva sylvestris), Russian thistle (Salsola kali), and sugarcane (Saccharum officinarum) were planted and treated preemergence with test chemicals formulated in a non-phytotoxic solvent mixture which included a surfactant. At a different time, sugarcane was treated with postemergence applications of some of the test chemicals formulated in the same manner. Plants were approximately 3- to 4-leaf stage for the postemergence treatments. Treated plants and controls were maintained in a greenhouse for 14 to 21 days, after which time all species were compared to controls and visually evaluated. […] A dash (-) response means no test result.

purple nutsedge = experiment: Test F preemergence test; format: in vivo, Cyperus rotundus; conditions: scale 0 to 100
Text: as §1

itchgrass = experiment: Test F preemergence test; format: in vivo, Rottboellia cochinchinensis; conditions: scale 0 to 100
Text: as §1

broadleaf signalgrass = experiment: Test F preemergence test; format: in vivo, Brachiaria platyphylla; conditions: scale 0 to 100
Text: as §1

kochia = experiment: Test C pre-/postemergence test; format: in vivo, Kochia scoparia; conditions: for Plant response rating, Kochia: scale 0 to 100, 0 no effect, 100 complete control
Procedure, shortened: (§2)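 Compounds in a non-phytotoxic solvent with surfactant applied preemergence to seeded pots and, at the same time, postemergence to plants 2–18 cm tall (1- to 4-leaf stage). Paddy tests: pots flooded to 3 cm, compound applied into the water, depth held throughout.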

crabgrass = experiment: Test A pre-/postemergence greenhouse test; format: in vivo, Digitaria sanguinalis; conditions: for Crabgrass, Large plant response rating: 0 to 100 scale
Procedure, shortened: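 Pots of loam–sand soil sown with the test species are sprayed preemergence on the soil surface; emerged seedlings (1–2 leaves, 2–10 cm) are sprayed postemergence at the same time. The vehicle is a non-phytotoxic solvent mixture with surfactant. Injury is scored visually after ~10 d in greenhouse.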

pitted morningglory = experiment: Test F preemergence test; format: in vivo, Ipomoea lacunosa; conditions: scale 0 to 100
Text: as §1

yellow nutsedge = experiment: Test C pre-/postemergence test; format: in vivo, Cyperus esculentus; conditions: for Plant response rating, Nutsedge, Yellow: scale 0 to 100, 0 no effect, 100 complete control
Procedure, shortened: as §2

goosegrass = experiment: Test F preemergence test; format: in vivo, Eleusine indica; conditions: scale 0 to 100
Text: as §1

naked crabgrass = experiment: Test F preemergence test; format: in vivo, Digitaria nuda; conditions: scale 0 to 100
Text: as §1

prickly sida = experiment: Test F preemergence test; format: in vivo, Sida spinosa; conditions: scale 0 to 100
Text: as §1

green foxtail = experiment: Test F preemergence test; format: in vivo, Setaria viridis; conditions: scale 0 to 100
Text: as §1

common ragweed = experiment: Test C pre-/postemergence test; format: in vivo, Ambrosia elation; conditions: for Plant response rating, Ragweed: scale 0 to 100, 0 no effect, 100 complete control
Procedure, shortened: as §2

[1] = 62 g ai/ha, preemergence, scale 0 (no effect) to 100 (complete control)
[2] = 31 g ai/ha, Preemergence, scale 0 to 100
[3] = preemergence, 125 g ai/ha, scale 0 (no effect) to 100 (complete control)

In the case of `Cn1nc(C(F)(F)F)c(C[S+]([O-])c2ccc(Cl)c[n+]2[O-])c1OC(F)F` (centres unmarked) [Compound 6], the “Plant response rating, Bermudagrass” value (bermudagrass; 8 g ai/ha, preemergence) is reported as 0, the “Bermudagrass plant response rating” value (bermudagrass; 62 g ai/ha, Preemergence) is reported as 80 and the “Plant response rating, Bermudagrass” value (bermudagrass; Preemergence, 16 g ai/ha) is reported as 15. For the same compound, the “Plant response rating, Bermudagrass” value (bermudagrass; Preemergence, 31 g ai/ha) was 65, the “Plant response rating, Purple Nutsedge” value (purple nutsedge; 8 g ai/ha, preemergence) was 0 and the “Purple Nutsedge plant response rating” value (purple nutsedge; 62 g ai/ha, Preemergence) was 75. For the same compound, the “Plant response rating, Purple Nutsedge” value (purple nutsedge; Preemergence, 16 g ai/ha) was 20, the “Plant response rating, Purple Nutsedge” value (purple nutsedge; Preemergence, 31 g ai/ha) was 20 and the “Plant response rating, Itchgrass” value (itchgrass; 8 g ai/ha, preemergence) was 0. The “Itchgrass plant response rating” value (itchgrass; 62 g ai/ha, Preemergence) was 95, the “Plant response rating, Itchgrass” value (itchgrass; Preemergence, 16 g ai/ha) was 60 and the “Plant response rating, Itchgrass” value (itchgrass; Preemergence, 31 g ai/ha) was 75. For the same compound, the “Plant response rating, Signalgrass” value (broadleaf signalgrass; 8 g ai/ha, preemergence) was 0, the “Plant response rating, Signalgrass” value (broadleaf signalgrass; 16 g ai/ha, preemergence) was 50 and the “Signalgrass plant response rating” value (broadleaf signalgrass; 62 g ai/ha, Preemergence) was 95. The “Plant response rating, Signalgrass” value (broadleaf signalgrass; Preemergence, 31 g ai/ha) was 65, the “Kochia plant response rating” value (kochia; [1]) was 0 and the “Plant response rating (0 to 100), Kochia” value (kochia; Postemergence, 31 g ai/ha) was 0. The “Plant response rating, Kochia” value (kochia; Postemergence, 62 g ai/ha) was 0, the “Plant response rating, Kochia” value (kochia; Postemergence, 125 g ai/ha) was 0 and the “Plant response rating, Kochia” value (kochia; Postemergence, 250 g ai/ha) was 0. The “Plant response rating (0 to 100), Kochia” value (kochia; Preemergence, 250 g ai/ha) was 0, the “Crabgrass, Large plant response rating” value (crabgrass; Postemergence, 125 g ai/ha, 0 is no effect, 100 is complete control) was 70 and the “Crabgrass, Large plant response rating” value (crabgrass; Postemergence, 500 g ai/ha, 0 is no effect, 100 is complete control) was 90. The “Crabgrass, Large plant response rating” value (crabgrass; Preemergence, 125 g ai/ha, 0 no effect, 100 complete control) was 100, the “Plant response rating, Crabgrass, Large” value (crabgrass; Preemergence, 500 g ai/ha, 0 to 100 scale where 0 is no effect and 100 is complete control) was 100 and the “Plant response rating, Morningglory” value (pitted morningglory; 8 g ai/ha, preemergence) was 0. The “Morningglory plant response rating” value (pitted morningglory; 62 g ai/ha, Preemergence) was 75, the “Plant response rating, Morningglory” value (pitted morningglory; Preemergence, 16 g ai/ha) was 0 and the “Plant response rating, Morningglory” value (pitted morningglory; Preemergence, 31 g ai/ha) was 75. For the same compound, the “Nutsedge, Yellow plant response rating” value (yellow nutsedge; [2]) was 0, the “Nutsedge, Yellow plant response rating” value (yellow nutsedge; [1]) was 20 and the “Plant response rating (0 to 100), Nutsedge, Yellow” value (yellow nutsedge; Postemergence, 31 g ai/ha) was 0. The “Plant response rating, Nutsedge, Yellow” value (yellow nutsedge; Postemergence, 62 g ai/ha) was 0, the “Plant response rating, Nutsedge, Yellow” value (yellow nutsedge; Postemergence, 125 g ai/ha) was 0 and the “Plant response rating, Nutsedge, Yellow” value (yellow nutsedge; Postemergence, 250 g ai/ha) was 20. The “Plant response rating (0 to 100), Nutsedge, Yellow” value (yellow nutsedge; Preemergence, 250 g ai/ha) was 98, the “Nutsedge, Yellow plant response rating” value (yellow nutsedge; [3]) was 80 and the “Plant response rating, Goosegrass” value (goosegrass; 8 g ai/ha, preemergence) was 20. For the same compound, the “Goosegrass plant response rating” value (goosegrass; 62 g ai/ha, Preemergence) was 95, the “Plant response rating, Goosegrass” value (goosegrass; Preemergence, 16 g ai/ha) was 75 and the “Plant response rating, Goosegrass” value (goosegrass; Preemergence, 31 g ai/ha) was 90. The “Plant response rating, Crabgrass, Naked” value (naked crabgrass; 8 g ai/ha, preemergence) was 0, the “Crabgrass, Naked plant response rating” value (naked crabgrass; 62 g ai/ha, Preemergence) was 100 and the “Plant response rating, Crabgrass, Naked” value (naked crabgrass; Preemergence, 16 g ai/ha) was 65. The “Plant response rating, Crabgrass, Naked” value (naked crabgrass; Preemergence, 31 g ai/ha) was 80, the “Plant response rating, Prickly Sida” value (prickly sida; 8 g ai/ha, preemergence) was 0 and the “Prickly Sida plant response rating” value (prickly sida; 62 g ai/ha, Preemergence) was 100. For the same compound, the “Plant response rating, Prickly Sida” value (prickly sida; Preemergence, 16 g ai/ha) was 0, the “Plant response rating, Prickly Sida” value (prickly sida; Preemergence, 31 g ai/ha) was 80 and the “Plant response rating, Foxtail, Green” value (green foxtail; 8 g ai/ha, preemergence) was 0. For the same compound, the “Foxtail, Green plant response rating” value (green foxtail; 62 g ai/ha, Preemergence) was 85, the “Plant response rating, Foxtail, Green” value (green foxtail; Preemergence, 16 g ai/ha) was 65 and the “Plant response rating, Foxtail, Green” value (green foxtail; Preemergence, 31 g ai/ha) was 80. The “Ragweed plant response rating” value (common ragweed; [2]) was 0, the “Ragweed plant response rating” value (common ragweed; [1]) was 0 and the “Plant response rating (0 to 100), Ragweed” value (common ragweed; Postemergence, 31 g ai/ha) was 0. The “Plant response rating (0 to 100), Ragweed” value (common ragweed; Postemergence, 62 g ai/ha) was 0, the “Plant response rating, Ragweed” value (common ragweed; Postemergence, 125 g ai/ha) was 10 and the “Plant response rating, Ragweed” value (common ragweed; Postemergence, 250 g ai/ha) was 50. For the same compound, the “Plant response rating (0 to 100), Ragweed” value (common ragweed; Preemergence, 250 g ai/ha) was 40 and the “Ragweed plant response rating” value (common ragweed; [3]) was 0.
